Laboratory results: paper PMC7607171, “Optimized low‐dose combinatorial drug treatment boosts selectivity and efficacy of colorectal carcinoma treatment” (Molecular Oncology, 2020)
Read-outs that look alike come from different tables or passages of the source.

Columns and labels:
[1] = Pharmacokinetics, dried blood spot LC-MS/MS, mice with SW620 tumors; format: in vivo; conditions: for Tmax / AUC(0-t) / Cmax: Swiss Nu/nu, mouse, whole blood (dried blood spot), po, regorafenib 30, vemurafenib 75, GDC-0994 10 mg/kg; for AUC(0-t) / Cmax: whole blood, mean ± SD; for AUC(0-t): oral, read-out: AUC0-24h; for increase of AUC as part of the ODC vs single-drug treatment: mice bearing SW620 tumors, AUC0-24h
Experimental: The pharmacokinetic (PK) study was performed using the dried blood spot method. Mice were treated with CTRL, ODCs, and corresponding monotherapies as described above. To determine the disposition in blood in the first 24h, blood samples (5 µL/mouse) were collected from the tail vein (n = 4 mice) at 2h, 4h, 8h, and 24h time points and transferred onto paper (a filter paper 903 protein saver card from Whatman (MA, USA)). A disk with the entire spot was punched from the paper card and transferred to the HPLC vial tube. Hundred µL of MeOH containing a mix of internal standards was added, and the tube was vortex‐mixed for about 1 min before injecting 10 µL into the LC‐MS/MS system. The LC‐MS/MS system consisted of an API 4,000 triple quadrupole mass spectrometer (AB sciex, Concord, ON, Canada) controlled by analyst 1.6.1 software. The mass spectrometer was operated in the multiple reaction monitoring (MRM) mode with positive electrospray ionization. The instrument was coupled with an Agilent series 1100 (Waldbronn, Germany) LC system. Chromatography was performed on a Phenomenex Kinetex C18 analytical column (50 mm x 2.1 mm, 2.6 um; Torrance, CA, USA). The flow rate was 0.5 mL/min using gradient elution conditions. The method was fully validated before application to this pharmacokinetic study.

[2] = 0-24h, oral, cited from earlier work
[3] = Serum and intratumor drug concentration at experimental endpoint, DLD1 model; format: in vivo, mice; conditions: for concentration at 1 h / Kp at 1 h: Swiss Nu/nu, mouse, oral; for concentration at 1 h: 1h post-treatment at endpoint (day 15); for Kp at 1 h: tumor vs serum, read-out: ratio tumor vs serum; for Kp at 1 h / ratio ODC vs single drug: DLD1 model
Experimental: (§1) At the experimental endpoint, plasma and tumors were collected 1h post‐treatment and part of the tumor tissue was used to determine the intratumor drug concentrations. Plasma and tumor samples were analyzed using the same LC‐MS/MS method used for drug determination in DBS. Before analysis, tumor tissues were homogenized in a 1 mL mixture of water/acetonitrile (30/70). Hundred uL of homogenates were transferred into new tubes and 50 µL of acetonitrile, as well as 50 µL of a mix of internal standards in MeOH were added. Tubes were vortexed and centrifuged for 10 min at 9,000 rpm. The supernatant (100 µL) was evaporated under nitrogen and reconstituted in 100 µL of acetonitrile with 0.1% formic acid/water with 0.1% formic acid (30/70). 10 µL was then injected into the LC‐MS/MS system. Plasma samples were spotted onto the same paper used for whole blood analysis and were extracted and analyzed using the same methods as used for DBS.

[4] = Serum and intratumor drug concentration at experimental endpoint, SW620 model; format: in vivo, mice; conditions: for concentration at 1 h / Kp at 1 h: Swiss Nu/nu, mouse, oral; for concentration at 1 h: 1h post-treatment at endpoint (day 19); for Kp at 1 h: tumor vs serum, read-out: ratio tumor vs serum; for Kp at 1 h / ratio ODC vs single drug: SW620 model
Experimental: as §1

[5] = system: HCT116 cells; assay: Tunneling nanotubule (TNT) quantification, F-actin/DAPI staining; format: cell-based, human
[6] = system: SW620 cells; assay: CellTiter-Glo metabolic ATP activity assay, 2D culture; format: cell-based, human; conditions: low-dose single drug (hormetic dose effect)
Experimental: Drugs were dissolved in DMSO and stored at −80, and aliquots were thawn prior to each use. Drugs were dissolved at concentrations resulting in in vitro experimental conditions 0.15% DMSO maximum in the culture medium. […] The 48‐hour retreatment was performed by adding another volume of media containing a 1x concentration of drugs to not affect the final concentration in the wells.
Drug treatment activity in 2D and 3D cultures was measured using the CellTiter‐Glo® cell metabolic activity (ATP) assays (G7572 and G9683, Promega, Madison, WI, USA), according to the manufacturer`s instructions. Assay bioluminescence was detected using the BioTek Cytation 3 and corresponding Gen5 Image software version 3.04 at standard settings.
The next step is the drug combination screening in Search 1 (11 drugs in 155 combinations) according to the OACD resolution IV matrix and performed in the CRC and the nonmalignant CCD841CoN cell simultaneously. The resulting output of the drug combination activity was measured in cell metabolic activity (ATP levels, % CTRL) to represent cell viability and consisted of the average of technical triplicate values. The experimental data points are then used for step‐wise second‐order linear regression analysis by Matlab®. This model mathematically describes the relationship between the drug combination input and output activity of each possible two‐drug combination. […]

[7] = given as part of SW620-specific ODC
[8] = serum, as part of ODC, regorafenib 15, erlotinib 12.5, selumetinib 5, vemurafenib 75 mg/kg, read-out: concentration serum
[9] = serum, single drug, regorafenib 15, erlotinib 12.5, selumetinib 5, vemurafenib 75 mg/kg, read-out: concentration serum
[10] = tumor (DLD1), as part of ODC, DLD1 tumor, doses as E156, read-out: concentration tumor
[11] = tumor (DLD1), single drug, DLD1 tumor, doses as E156, read-out: concentration tumor
[12] = serum, as part of ODC, regorafenib 30, selumetinib 0.2, vemurafenib 75, GDC-0994 10 mg/kg, read-out: concentration serum
[13] = serum, single drug, regorafenib 30, selumetinib 0.2, vemurafenib 75, GDC-0994 10 mg/kg, read-out: concentration serum
[14] = tumor (SW620), as part of ODC, SW620 tumor, doses as E164, read-out: concentration tumor
[15] = tumor (SW620), single drug, SW620 tumor, doses as E164, read-out: concentration tumor

Tmax [1, 7]	AUC(0-t) [1, 7]	Cmax [1, 7]	Tmax ([1]; mono)	AUC(0-t) ([1]; mono)	Cmax ([1]; mono)	increase of AUC as part of the ODC vs single-drug treatment [1]	concentration at 1 h [3, 8]	concentration at 1 h [3, 9]	concentration at 1 h [3, 10]	concentration at 1 h [3, 11]	Kp at 1 h ([3]; as part of ODC)	Kp at 1 h ([3]; single drug)	concentration at 1 h [4, 12]	concentration at 1 h [4, 13]	concentration at 1 h [4, 14]	Kp at 1 h ([4]; as part of ODC)	Kp at 1 h ([4]; single drug)	SMILES	ratio ODC vs single drug ([3]; serum)	ratio ODC vs single drug ([3]; tumor)	further results
4 h	22200 ± 1830 ng·h/mL	1610 ± 220 ng/mL	4 h	9860 ± 1930 ng·h/mL	710 ± 260 ng/mL	2.2 x	1830 ± 540 ng/mL	880 ± 250 ng/mL	8670 ± 5530 ng/g	1540 ± 680 ng/g	4.74	1.76	6600 ± 2800 ng/mL	2220 ± 70 ng/mL	1820 ± 770 ng/g	0.28	0.6	CNC(=O)c1cc(Oc2ccc(NC(=O)Nc3ccc(Cl)c(C(F)(F)F)c3)c(F)c2)ccn1 [regorafenib]	2.09	5.62	AUC ([2]; 160 mg/kg, 3 wk on/ 1 wk off, ref 12): 50260 ng·h/mL; AUC ([2]; 160 mg/kg, 3 wk on/ 1 wk off, ref 13): 58300 ng·h/mL; concentration at 1 h [4, 15]: 1330 ± 230 ng/g; ratio ODC vs single drug ([4]; serum): 2.97; ratio ODC vs single drug ([4]; tumor): 1.37
2 h	890 ± 130 ng·h/mL	230 ± 80 ng/mL	2 h	770 ± 140 ng·h/mL	240 ± 80 ng/mL	1.2 x	3490 ± 900 ng/mL	2500 ± 1080 ng/mL	4530 ± 1950 ng/g	1980 ± 660 ng/g	1.3	0.79	280 ± 200 ng/mL	410 ± 350 ng/mL	220 ± 100 ng/g	0.77	1.39	Cn1cnc2c(F)c(Nc3ccc(Br)cc3Cl)c(C(=O)NOCCO)cc21 [selumetinib]	–	–	concentration at 1 h [4, 15]: 560 ± 90 ng/g

SMILES	Tmax [1, 7]	AUC(0-t) [1, 7]	Cmax [1, 7]	Tmax ([1]; mono)	AUC(0-t) ([1]; mono)	Cmax ([1]; mono)	increase of AUC as part of the ODC vs single-drug treatment [1]	concentration at 1 h [3, 8]	concentration at 1 h [3, 9]	concentration at 1 h [3, 10]	concentration at 1 h [3, 11]	Kp at 1 h ([3]; as part of ODC)	Kp at 1 h ([3]; single drug)	concentration at 1 h [4, 12]	concentration at 1 h [4, 13]	concentration at 1 h [4, 14]	Kp at 1 h ([4]; as part of ODC)	Kp at 1 h ([4]; single drug)	ratio ODC vs single drug ([3]; serum)	ratio ODC vs single drug ([3]; tumor)	further results
CCCS(=O)(=O)Nc1ccc(F)c(C(=O)c2c[nH]c3ncc(-c4ccc(Cl)cc4)cc23)c1F [vemurafenib]	4 h	48200 ± 5720 ng·h/mL	4710 ± 650 ng/mL	2 h	19400 ± 3250 ng·h/mL	2560 ± 640 ng/mL	2.5 x	910 ± 380 ng/mL	620 ng/mL	1650 ± 1000 ng/g	790 ng/g	1.81	1.28	1770 ± 770 ng/mL	1960 ± 1050 ng/mL	890 ± 530 ng/g	0.5	0.48	1.48	2.09	cells forming tunneling nanotubules (TNTs, > 10 µm) ([5]; single drug (CTRL 9.5%)): 14.0%; TNT length ([5]; single drug (CTRL 21 µm), nonsignificant): 32 µm; AUC ([2]; 960 mg/kg twice daily): 131000 ng·h/mL; AUC ([2]; 960 mg/kg twice daily, ref EPAR 002409): 21100 ng·h/mL; ratio ODC vs single drug ([4]; serum): 0.90; ratio ODC vs single drug ([4]; tumor): 0.95; effect on cell viability [6]: increased cell viability
